# Experimental data taken from patent US12252701B2, “Chimeric antigen receptor T cell therapy” (KITE PHARMA, INC., priority 2020, dated 2025).
# Assays:
# CAR-T cells = test: CAR-T cell expansion assay (KIP-1 or CD3/CD28 stimulation); details: for % viabili.: CD3/CD28 stimulation; for % viabi.: KIP-1 stimulation
# [1] = cited from earlier work
# CD19 CAR T cells = test: CAR T cell cytokine production (Luminex) under CD19 K562, KIP-1 or CD2/3/28 stimulation; details: K562-CD19 stimulation, 72 h
# Protocol: Cryopreserved healthy donor CLP CD19 CAR T cells were thawed and rested overnight in 100 U/ml of IL-2 at 1×10^6/ml. 2.5×10^5 CD19 CART cells were plated in 96-well RB plate wells in a total volume of 200 μl of R10 culture media. […] CD19 CART cell cytokine production was allowed to proceed through 72 hours in the presence of stimulator and JAKi or steroid. Following 72 h of culture, 100 μl of the cell supernatant of each well were harvested and stored at −80° C. for later Luminex/Bioplex-200 cytokine analysis. Briefly, stored supernatants were thawed and 50 μl of the sample was assayed for cytokines using a ThermoFisher Procarta Plex 19-plex human cytokine assay kit (ThermoFisher, Carlsbad, CA) according to kit manufacturer's instructions and detected using a BioRad Bioplex-200 instrument. The data points generated from the luminex cytokine assay were transferred to a GraphPad PRISM IC50 dose-response curve analysis to generate IC50 or potency values for the JAKi's and steroids tested.
# Nalm-6 luc = test: CAR-T cell killing assay (luciferase viability of tumor cells)
smiles,measurement,setting,value
C[C@@H]1CCN(C(=O)CC#N)C[C@@H]1N(C)c1ncnc2[nH]ccc12 [tofacitinib],% viabili.,"CAR-T cells; 10 nM, Day 0",84%
same,% viabili.,"CAR-T cells; 10 nM, Day 4",70.8%
same,% viabili.,"CAR-T cells; 10 nM, Day 8",80.9%
same,% viabili.,"CAR-T cells; 10 nM, Day 12",82.9%
same,% viabili.,"CAR-T cells; 20 nM, Day 0",84%
same,% viabili.,"CAR-T cells; 20 nM, Day 4",81.1%
same,% viabili.,"CAR-T cells; 20 nM, Day 8",70.1%
same,% viabili.,"CAR-T cells; 20 nM, Day 12",79.5%
same,% viabili.,"CAR-T cells; 40 nM, Day 0",84%
same,% viabili.,"CAR-T cells; 40 nM, Day 4",89.2%
same,% viabili.,"CAR-T cells; 40 nM, Day 8",73.5%
same,% viabili.,"CAR-T cells; 40 nM, Day 12",74.8%
same,% viabili.,"CAR-T cells; 60 nM, Day 0",84%
same,% viabili.,"CAR-T cells; 60 nM, Day 4",93.1%
same,% viabili.,"CAR-T cells; 60 nM, Day 8",86.6%
same,% viabili.,"CAR-T cells; 60 nM, Day 12",74.5%
same,% viabili.,"CAR-T cells; 80 nM, Day 0",84%
same,% viabili.,"CAR-T cells; 80 nM, Day 4",91.7%
same,% viabili.,"CAR-T cells; 80 nM, Day 8",86.3%
same,% viabili.,"CAR-T cells; 80 nM, Day 12",77%
same,% viabili.,"CAR-T cells; 100 nM, Day 0",84%
same,% viabili.,"CAR-T cells; 100 nM, Day 4",94.3%
same,% viabili.,"CAR-T cells; 100 nM, Day 8",85.5%
same,% viabili.,"CAR-T cells; 100 nM, Day 12",73.9%
same,% viabi.,"CAR-T cells; 10 nM, Day 0",84%
same,% viabi.,"CAR-T cells; 10 nM, Day 4",77.9%
same,% viabi.,"CAR-T cells; 10 nM, Day 8",61.2%
same,% viabi.,"CAR-T cells; 10 nM, Day 12",85.2%
same,% viabi.,"CAR-T cells; 20 nM, Day 0",84%
same,% viabi.,"CAR-T cells; 20 nM, Day 4",84.7%
same,% viabi.,"CAR-T cells; 20 nM, Day 8",64.9%
same,% viabi.,"CAR-T cells; 20 nM, Day 12",79.3%
same,% viabi.,"CAR-T cells; 40 nM, Day 0",84%
same,% viabi.,"CAR-T cells; 40 nM, Day 4",84.3%
same,% viabi.,"CAR-T cells; 40 nM, Day 8",77.5%
same,% viabi.,"CAR-T cells; 40 nM, Day 12",76%
same,% viabi.,"CAR-T cells; 60 nM, Day 0",84%
same,% viabi.,"CAR-T cells; 60 nM, Day 4",82.3%
same,% viabi.,"CAR-T cells; 60 nM, Day 8",70.2%
same,% viabi.,"CAR-T cells; 60 nM, Day 12",76.1%
same,% viabi.,"CAR-T cells; 80 nM, Day 0",84%
same,% viabi.,"CAR-T cells; 80 nM, Day 4",81.8%
same,% viabi.,"CAR-T cells; 80 nM, Day 8",69.7%
same,% viabi.,"CAR-T cells; 80 nM, Day 12",73.4%
same,% viabi.,"CAR-T cells; 100 nM, Day 0",84%
same,% viabi.,"CAR-T cells; 100 nM, Day 4",73.2%
same,% viabi.,"CAR-T cells; 100 nM, Day 8",72.7%
same,% viabi.,"CAR-T cells; 100 nM, Day 12",79.4%
same,effect on T cell expansion,CAR-T cells; at the doses tested (Table 40),moderate effects
same,impacts on expansion in further dose titrations,CAR-T cells; compared with upadacitinib and baricitinib,less severe in comparison
same,Cmax,"[1]; human, in vivo",58 ng/mL
same,Protein binding,"[1]; plasma protein binding, reported",40%
same,"Suppression of cytokine production, IFNg (IC50)",CD19 CAR T cells,Suppress
same,"Suppression of cytokine production, IL-6 (IC50)",CD19 CAR T cells,Suppress
same,Mean tumor cell death (%),"Nalm-6 luc; E:T ratio 1:1, dose 10 nM",98.6%
same,Mean tumor cell death (%),"Nalm-6 luc; E:T ratio 1:1, dose 20 nM",98.4%
same,Mean tumor cell death (%),"Nalm-6 luc; E:T ratio 1:1, dose 40 nM",96.1%
same,Mean tumor cell death (%),"Nalm-6 luc; E:T ratio 1:1, dose 60 nM",97.9%
same,Mean tumor cell death (%),"Nalm-6 luc; E:T ratio 1:1, dose 80 nM",98%
same,Mean tumor cell death (%),"Nalm-6 luc; E:T ratio 1:1, dose 100 nM",97.2%
same,Mean tumor cell death (%),"Nalm-6 luc; E:T ratio 1:3, dose 10 nM",83.2%
same,Mean tumor cell death (%),"Nalm-6 luc; E:T ratio 1:3, dose 20 nM",87.3%
same,Mean tumor cell death (%),"Nalm-6 luc; E:T ratio 1:3, dose 40 nM",85.5%
same,Mean tumor cell death (%),"Nalm-6 luc; E:T ratio 1:3, dose 60 nM",75.7%
same,Mean tumor cell death (%),"Nalm-6 luc; E:T ratio 1:3, dose 80 nM",66.6%
same,Mean tumor cell death (%),"Nalm-6 luc; E:T ratio 1:3, dose 100 nM",46.8%
same,Mean tumor cell death (%),"Nalm-6 luc; E:T ratio 1:9, dose 10 nM",37%
same,Mean tumor cell death (%),"Nalm-6 luc; E:T ratio 1:9, dose 20 nM",28.9%
same,Mean tumor cell death (%),"Nalm-6 luc; E:T ratio 1:9, dose 40 nM",36%
same,Mean tumor cell death (%),"Nalm-6 luc; E:T ratio 1:9, dose 60 nM",40.5%
same,Mean tumor cell death (%),"Nalm-6 luc; E:T ratio 1:9, dose 80 nM",28.2%
same,Mean tumor cell death (%),"Nalm-6 luc; E:T ratio 1:9, dose 100 nM",25.6%
